Data as given in patent US8263598B2, “Substituted sulfonamide compounds” (Gruenenthal GmbH, priority 2008, dated 2012).

Tests used:
[1] = biological target: T1, B1R receptor of rats (rB1R) (Rattus norvegicus, UniProt P97583); test: FLIPR Ca2+ assay on rat bradykinin 1 receptor (CHO K1 rB1R cells); format: cell-based; settings: test substance 10 μM; CHO K1 cells with B1R gene of rats; agonist Des-Arg9-bradykinin 100 nM; compared to maximum achievable inhibition
T1 construct: host or cells: CHO K1 cells
T1 sequence (P97583 1-337): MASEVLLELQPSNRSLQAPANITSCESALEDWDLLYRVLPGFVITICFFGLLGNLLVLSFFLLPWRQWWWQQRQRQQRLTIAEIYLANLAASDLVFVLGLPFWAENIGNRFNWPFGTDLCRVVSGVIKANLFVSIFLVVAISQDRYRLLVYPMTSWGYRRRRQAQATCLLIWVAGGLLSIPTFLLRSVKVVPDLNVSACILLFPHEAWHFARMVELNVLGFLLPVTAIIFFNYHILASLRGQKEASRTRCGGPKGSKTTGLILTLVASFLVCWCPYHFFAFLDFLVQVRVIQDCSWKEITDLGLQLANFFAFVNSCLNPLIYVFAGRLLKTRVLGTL
Method: (§1) The agonistic or antagonistic action of compounds can be quantified on the bradykinin 1 receptor (B1R) of humans and rats with ectopically expressing cell lines (CHO K1 cells) and with the aid of a Ca^2+-sensitive dye (Fluo-4) in the fluorescent imaging plate reader (FLIPR). The figure in percent activation refers to the Ca^2+ signal after addition of Lys-Des-Arg^9-bradykinin (0.5 nM) and Des-Arg^9-bradykinin (100 nM). Antagonists result in a suppression of the Ca^2+ inflow after the addition of the agonist. Percent inhibition values are given in comparison to the maximum achievable inhibition.
(§2) The agonistic or antagonistic action of substances can be determined on the bradykinin 1 receptor (B1R) of humans and rats by means of the following assay.
(§3) According to this assay the Ca^2+ inflow through the channel is quantified by means of a Ca^2+-sensitive dye (Fluo-4 type, Molecular Probes Europe BV, Leiden, Netherlands), in a Fluorescent Imaging Plate Reader (FLIPR, Molecular Devices, Sunnyvale, USA). Method:
(§4) Chinese hamster ovary cells (CHO K1 cells) are used, which are stably transfected with the human B1R gene (hB1R cells, Euroscreen s.a., Gosselies, Belgium), or with the B1R gene of rats (rB1R cells, Axxam, Milan, Italy). For functional investigations these cells are plated out on black 96-well plates with a clear floor (BD Biosciences, Heidelberg, Germany) in a density of 20,000/25,000 cells/well. The cells are incubated overnight with 10 vol. % FBS (foetal bovine serum, Gibco Invitrogen GmbH, Karlsruhe, Germany) at 37° C. and 5% CO2 in a culture medium (hB1R cells: Nutrient Mixture Ham's F12, Gibco Invitrogen GmbH, Karlsruhe, Germany; rB1R cells: D-MEM/F12, Gibco Invitrogen GmbH, Karlsruhe, Germany). The following day the cells are charged for 60 minutes at 37° C. with 2.13 μM Fluo-4 (Molecular Probes Europe BV, Leiden, Netherlands) in HBSS buffer (Hank's buffered saline solution, Gibco Invitrogen GmbH, Karlsruhe, Germany) together with […] (Sigma-Aldrich, Taufkirchen, Germany) and 10 mM HEPES (Sigma-Aldrich, Taufkirchen, Germany).
(§5) The plates are then washed twice with HBSS buffer and HBSS buffer is added which additionally contains 0.1% BSA (bovine serum albumin; Sigma-Aldrich, Taufkirchen, Germany), 5.6 mM glucose and 0.05% gelatin (Merck KGaA, Darmstadt, Germany). After further incubation for 20 minutes at room temperature the plates are used for the Ca^2+ measurement in the FLIPR. The Ca^2+-dependent fluorescence is measured both before and after the addition of substances (λex=488 nm, λem=540 nm). The quantification is carried out by measuring the highest fluorescence intensity (FC, fluorescence counts) over time.
(§6) The FLIPR protocol consists of two substance additions. First of all test substances (10 μM) are pipetted onto the cells and the Ca^2+ inflow is compared with the control (hB1R: Lys-Des-Arg9-bradykinin 0.5 nM; rB1R: Des-Arg9-bradykinin 100 nM). This gives the result in percent activation referred to the Ca^2+ signal after addition of Lys-Des-Arg9-bradykinin (0.5 nM), bzw. Des-Arg9-bradykinin (100 nM). After 10 minutes' incubation 0.5 nM Lys-Des-Arg9-bradykinin (hB1R) and 100 nM Des-Arg^9-bradykinin (rB1R) are applied and the inflow of Ca^2+ is likewise determined. Antagonists lead to a suppression of the Ca^2+ inflow. The percent inhibition compared to the maximum achievable inhibition is calculated. The compounds show a good activity on both human and rat receptors.
(§7) The agonistic and antagonistic action of the compounds according to the invention on the bradykinin 1 receptor (B1R) of humans and rats were determined as described above. Antagonists lead to a suppression of the Ca^2+ inflow. The % inhibition compared to the maximum achievable inhibition was calculated.

[2] = biological target: T2, human B1R receptor (hB1R) (Homo sapiens, UniProt P46663); test: FLIPR Ca2+ assay on human bradykinin 1 receptor (CHO K1 hB1R cells); format: cell-based; settings: test substance 10 μM; CHO K1 cells with human B1R gene; agonist Lys-Des-Arg9-bradykinin 0.5 nM; compared to maximum achievable inhibition
T2 construct: host or cells: CHO K1 cells
T2 sequence (P46663 1-353): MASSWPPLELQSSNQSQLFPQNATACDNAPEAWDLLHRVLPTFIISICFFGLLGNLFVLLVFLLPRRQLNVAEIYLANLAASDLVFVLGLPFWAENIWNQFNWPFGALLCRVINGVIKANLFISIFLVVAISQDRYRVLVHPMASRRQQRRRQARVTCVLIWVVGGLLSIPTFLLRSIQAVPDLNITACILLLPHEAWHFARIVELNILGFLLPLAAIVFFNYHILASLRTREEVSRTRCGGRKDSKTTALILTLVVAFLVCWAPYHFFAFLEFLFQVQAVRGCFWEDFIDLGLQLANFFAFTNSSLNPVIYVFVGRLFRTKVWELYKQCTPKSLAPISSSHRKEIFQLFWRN
Method: as §1, §2, §3, §4, §5, §6, §7

| Compound | inhibition at 10 µM [1] [%] | inhibition at 10 µM [2] [%] |
| --- | --- | --- |
| CCC1c2ccc(CN(C)C)n2CCN1C(=O)COCCN(C)S(=O)(=O)c1c(C)cc(C)cc1C (centres unmarked) [Example 145, N-(2-(2-(6-((dimethylamino)methyl)-1-ethyl-3,4-dihydropyrrolo[1,2-a]pyrazin-2(1H)-yl)-2-oxoethoxy)ethyl)-N,2,4,6-tetramethylbenzenesulfonamide] | 103 | 104 |
| COc1c(C)cc(S(=O)(=O)N(C)CCOCC(=O)N2CCn3c(CN4CCCC4)ccc3C2c2ccccc2)c(C)c1C (centres unmarked) [Example 106, 4-methoxy-N,2,3,5-tetramethyl-N-(2-(2-oxo-2-(1-phenyl-6-(pyrrolidin-1-ylmethyl)-3,4-dihydropyrrolo[1,2-a]pyrazin-2(1H)-yl)ethoxy)ethyl)benzene-sulfonamide] | 101 | 99 |
| COc1cc(C)c(S(=O)(=O)N(C)CCOCC(=O)N2CCn3c(nc(CN4CCCCC4)c3Cl)C2)c(C)c1 [Example 6, N-(2-(2-(3-chloro-2-(piperidin-1-ylmethyl)-5,6-dihydroimidazo[1,2-a]pyrazin-7(8H)-yl)-2-oxoethoxy)ethyl)-4-methoxy-N,2,6-trimethylbenzenesulfonamide] | 99 | 100 |
| Cc1cc(C)c(S(=O)(=O)N(C)CCOCC(=O)N2CCn3cccc3C2C(C)(C)C)c(C)c1 (centres unmarked) [Example 65, N-(2-(2-(1-tert-butyl-3,4-dihydropyrrolo[1,2-a]pyrazin-2(1H)-yl)-2-oxoethoxy)ethyl)-N,2,4,6-tetramethylbenzenesulfonamide] | 99 | 101 |

Results, then the compound that gave them:

| inhibition at 10 µM [1] [%] | inhibition at 10 µM [2] [%] | Compound |
| --- | --- | --- |
| 96 | 96 | COc1cc(C)c(S(=O)(=O)N(CCOCC(=O)N2CCn3c(CN(C)C)ccc3C2Cc2ccccc2)Cc2ccccc2)c(C)c1C (centres unmarked) [Example 118, N-benzyl-N-(2-(2-(1-benzyl-6-((dimethylamino)methyl)-3,4-dihydropyrrolo[1,2-a]pyrazin-2(1H)-yl)-2-oxoethoxy)ethyl)-4-methoxy-2,3,6-trimethylbenzene-sulfonamide] |
| 99 | 78 | COc1c(C)cc(S(=O)(=O)N(C)CCOCC(=O)N2CCn3cccc3C2c2ccccc2)c(C)c1C (centres unmarked) [Example 32, 4-methoxy-N,2,3,5-tetramethyl-N-(2-(2-oxo-2-(1-phenyl-3,4-dihydropyrrolo[1,2-a]pyrazin-2(1H)-yl)ethoxy)ethyl)benzenesulfonamide] |
| 97 | 53 | COc1ccc(C2c3cccn3CCN2C(=O)COCCN(CC(C)C)S(=O)(=O)c2c(C)cc(OC)c(C)c2C)cc1 (centres unmarked) [Example 22, N-isobutyl-4-methoxy-N-(2-(2-(1-(4-methoxyphenyl)-3,4-dihydropyrrolo[1,2-a]pyrazin-2(1H)-yl)-2-oxoethoxy)ethyl)-2,3,6-trimethylbenzenesulfonamide] |
| 69 | 39 | COc1cc(C)c(S(=O)(=O)N(CCOCC(=O)N2CCn3cccc3C2c2ccc(C)c(C)c2)Cc2ccccc2)c(C)c1 (centres unmarked) [Example 49, N-benzyl-N-(2-(2-(1-(3,4-dimethylphenyl)-3,4-dihydropyrrolo[1,2-a]pyrazin-2(1H)-yl)-2-oxoethoxy)ethyl)-4-methoxy-2,6-dimethylbenzenesulfonamide] |
| 102 | 100 | CCC1c2cccn2CCN1C(=O)COCCN(Cc1ccccc1)S(=O)(=O)c1c(C)cc(OC)cc1C (centres unmarked) [Example 132, N-benzyl-N-(2-(2-(1-ethyl-3,4-dihydropyrrolo[1,2-a]pyrazin-2(1H)-yl)-2-oxoethoxy)ethyl)-4-methoxy-2,6-dimethylbenzenesulfonamide] |
| 78 | 25 | COc1cc(C)c(S(=O)(=O)N(CCOCC(=O)N2CCn3cccc3C2CCc2ccccc2)Cc2ccccc2)c(C)c1 (centres unmarked) [Example 125, N-benzyl-4-methoxy-2,6-dimethyl-N-(2-(2-oxo-2-(1-phenethyl-3,4-dihydropyrrolo[1,2-a]pyrazin-2(1H)-yl)ethoxy)ethyl)benzenesulfonamide] |
